Structures can show the parent of a compound that is named as a salt.
Key:
Format in all cases: cell-based
mGlu4 = mGlu4 (Homo sapiens (Human), UniProt Q14833); experiment: Agonist activity on mGlu4 in transfected HEK293 cells, intracellular calcium release (Fluo4-AM); conditions: transfected cells, calcium release; read-out: mGlu4 EC50 μM (n)
Source text: (§1) The EC50's are compared to those of L-AP4 (L-2-amino-4-phosphonobutyric acid) used as a reference.
(§2) Metabotropic glutamate receptors were transiently transfected in HEK293 cells by electroporation as described elsewhere (Brabet I. et al., 1998) and plated in 96-well microplates. The high affinity glutamate transporter EAAC1 was co-transfected with the receptor in order to avoid any influence of glutamate released by the cells in the assay medium. In the experiments carried out by the inventors, Group-III mGluRs were co-transfected with a chimeric G-protein which couples the activation of the receptor to the phospholipase-C (PLC) pathway. Thus receptor activation induces production of inositol phosphate (IP) which in turn induces intracellular Ca^2+ release. Receptor activity was then determined by measurement of the IP production or Ca release as already described (Goudet C. et al., PNAS 2004). For intracellular calcium measurements, cells expressing mGluRs were loaded with Ca2+-sensitive fluorescent dye Fluo-4 AM (Invitrogen, Cergy-Pontoise, France) dissolved in Hanks' balanced salt solution (HBSS, Invitrogen, Cergy-Pontoise, France) containing 2.5 mM Probenicid (Sigma-Aldrich Chemie, Saint-Quentin Fallavier, France) for 1 h at 37° C., then washed and incubated with HBSS containing probenecid. A drug plate was prepared with the various concentrations of agonist to be tested and drug solution was added in each well after 20 s of recording. Fluorescence signals (excitation 485 nm, emission 525 nm) were measured by using the fluorescence microplate reader Flexstation III (Molecular Devices, Saint-Grégoire, France) at sampling intervals of 1.5 s for 60 s. All points are realized in triplicate.
(§3) The dose-response curves were fitted using the GraphPad Prism program and the following equation: y=[(ymax−ymin)/(1+(x/EC50)n)]+ymin where EC50 is the concentration of the compound necessary to obtain the half maximal effect and n is the Hill coefficient.

mGlu8 = mGlu8 (Homo sapiens (Human), UniProt O00222); experiment: Agonist activity on mGlu8 in transfected HEK293 cells, intracellular calcium release (Fluo4-AM); conditions: for mGlu8/4 EC50 ratio: ratio of mGlu8 EC50 to mGlu4 EC50; for EC50: transfected cells, calcium release, read-out: mGlu8 EC50 μM (n)
mGlu8, sequence (O00222 34-908): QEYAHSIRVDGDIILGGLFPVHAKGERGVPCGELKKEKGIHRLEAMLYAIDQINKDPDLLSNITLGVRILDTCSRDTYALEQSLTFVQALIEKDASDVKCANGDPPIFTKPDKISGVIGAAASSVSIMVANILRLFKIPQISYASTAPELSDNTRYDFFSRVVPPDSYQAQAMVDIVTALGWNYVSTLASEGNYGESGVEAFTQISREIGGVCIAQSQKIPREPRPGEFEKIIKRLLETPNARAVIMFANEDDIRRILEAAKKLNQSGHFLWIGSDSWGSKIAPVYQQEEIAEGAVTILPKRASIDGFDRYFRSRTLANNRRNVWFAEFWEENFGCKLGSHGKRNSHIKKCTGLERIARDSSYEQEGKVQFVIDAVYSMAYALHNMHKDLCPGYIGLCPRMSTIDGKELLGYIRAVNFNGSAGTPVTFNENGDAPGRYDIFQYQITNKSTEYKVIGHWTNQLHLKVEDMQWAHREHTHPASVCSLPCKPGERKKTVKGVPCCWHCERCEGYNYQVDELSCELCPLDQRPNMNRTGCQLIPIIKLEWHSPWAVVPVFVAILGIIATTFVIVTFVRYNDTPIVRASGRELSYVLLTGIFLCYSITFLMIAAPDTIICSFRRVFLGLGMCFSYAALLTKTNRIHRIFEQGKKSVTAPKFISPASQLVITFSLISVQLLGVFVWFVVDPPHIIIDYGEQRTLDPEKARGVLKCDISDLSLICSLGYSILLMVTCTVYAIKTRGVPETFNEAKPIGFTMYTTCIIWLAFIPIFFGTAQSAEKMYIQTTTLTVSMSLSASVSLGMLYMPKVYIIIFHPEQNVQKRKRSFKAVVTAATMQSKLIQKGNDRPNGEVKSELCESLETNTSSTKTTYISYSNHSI
Source text: as §1, §2, §3

mGlu7 [1] = target: mGlu7 (Homo sapiens (Human), UniProt Q14831); experiment: Agonist activity on mGlu7 in transfected HEK293 cells, intracellular calcium release (Fluo4-AM); conditions: transfected cells, calcium release; read-out: mGlu7 EC50 μM (n)
mGlu7 (Homo sapiens (Human), UniProt Q14831), sequence (Q14831 35-915): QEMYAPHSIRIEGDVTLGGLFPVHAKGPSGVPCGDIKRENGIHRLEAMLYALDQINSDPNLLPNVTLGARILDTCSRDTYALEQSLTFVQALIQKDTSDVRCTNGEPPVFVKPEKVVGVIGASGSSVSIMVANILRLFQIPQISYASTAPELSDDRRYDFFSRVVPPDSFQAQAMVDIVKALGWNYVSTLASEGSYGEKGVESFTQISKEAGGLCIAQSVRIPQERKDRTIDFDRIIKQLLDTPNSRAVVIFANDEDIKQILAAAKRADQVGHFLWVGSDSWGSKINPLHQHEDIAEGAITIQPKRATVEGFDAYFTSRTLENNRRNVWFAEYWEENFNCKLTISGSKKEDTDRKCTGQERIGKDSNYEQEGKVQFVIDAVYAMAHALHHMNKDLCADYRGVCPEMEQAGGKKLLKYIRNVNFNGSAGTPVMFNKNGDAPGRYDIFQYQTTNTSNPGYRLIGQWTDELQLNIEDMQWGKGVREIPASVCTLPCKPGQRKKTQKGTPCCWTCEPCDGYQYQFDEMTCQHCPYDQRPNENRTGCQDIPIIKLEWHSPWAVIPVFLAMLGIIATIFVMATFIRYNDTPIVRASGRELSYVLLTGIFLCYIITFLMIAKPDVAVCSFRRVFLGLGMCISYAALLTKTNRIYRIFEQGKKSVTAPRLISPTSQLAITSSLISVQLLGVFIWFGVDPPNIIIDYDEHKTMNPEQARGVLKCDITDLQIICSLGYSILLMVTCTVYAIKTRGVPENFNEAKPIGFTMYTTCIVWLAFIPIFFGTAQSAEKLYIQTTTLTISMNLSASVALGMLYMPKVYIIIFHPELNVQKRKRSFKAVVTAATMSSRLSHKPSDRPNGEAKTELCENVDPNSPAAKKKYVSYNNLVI
Source text: as §1, §2, §3

mGlu7 [2] = experiment: as above; conditions: ratio of mGlu7 EC50 to mGlu4 EC50
Source text: as §1, §2, §3

mGlu4, sequence (Q14833 33-912): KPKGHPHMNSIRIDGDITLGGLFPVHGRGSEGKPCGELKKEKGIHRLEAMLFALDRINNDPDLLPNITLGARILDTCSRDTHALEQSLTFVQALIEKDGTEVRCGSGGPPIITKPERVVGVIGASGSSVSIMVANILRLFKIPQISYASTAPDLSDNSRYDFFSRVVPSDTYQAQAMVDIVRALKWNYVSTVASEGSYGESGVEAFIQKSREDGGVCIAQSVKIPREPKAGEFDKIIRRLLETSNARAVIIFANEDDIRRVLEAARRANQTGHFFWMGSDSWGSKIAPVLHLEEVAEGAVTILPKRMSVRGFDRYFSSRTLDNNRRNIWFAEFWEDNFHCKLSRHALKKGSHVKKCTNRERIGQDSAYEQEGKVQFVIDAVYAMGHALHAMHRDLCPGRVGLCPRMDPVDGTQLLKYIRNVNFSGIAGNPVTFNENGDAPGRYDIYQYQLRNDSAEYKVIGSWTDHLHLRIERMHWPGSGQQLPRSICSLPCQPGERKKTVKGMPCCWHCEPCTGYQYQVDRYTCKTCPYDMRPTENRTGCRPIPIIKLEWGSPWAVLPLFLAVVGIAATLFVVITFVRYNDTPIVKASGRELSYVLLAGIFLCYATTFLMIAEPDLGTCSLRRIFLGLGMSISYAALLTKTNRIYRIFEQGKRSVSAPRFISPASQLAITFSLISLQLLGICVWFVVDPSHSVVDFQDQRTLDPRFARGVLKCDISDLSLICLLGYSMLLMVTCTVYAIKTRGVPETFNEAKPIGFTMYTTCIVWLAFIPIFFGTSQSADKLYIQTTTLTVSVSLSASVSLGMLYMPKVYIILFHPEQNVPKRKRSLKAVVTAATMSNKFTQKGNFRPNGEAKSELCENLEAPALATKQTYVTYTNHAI

SMILES	EC50 (mGlu4) [µM]	mGlu8/4 EC50 ratio (mGlu8)	EC50 (mGlu8) [µM]	EC50 (mGlu7 [1]) [µM]	mGlu7/4 EC50 ratio (mGlu7 [2])	mGlu8/4 EC50 ratio (mGlu8; Hydrochloride)
N[C@@H](CCP(=O)(O)C(O)c1cccc(OCC(=O)O)c1)C(=O)O (single isomer, unassigned) [Derivative 16, Hydrochloride]	4.9 ± 1		36 ± 18			
N[C@@H](CCP(=O)(O)C(O)c1cccc(OCC(=O)O)c1)C(=O)O (mixture of isomers) [Derivative 15, [((3S)-3-Amino-3-carboxy)propyl][(3-(carboxymethoxy)phenyl)hydroxymethyl]phosphinic Acid]	7.6 ± 2		71 ± 25			
N[C@@H](CCP(=O)(O)C(O)c1cccc(OCC(=O)O)c1)C(=O)O (stereo partly drawn) [Derivative 17, [((3S)-3-Ammonium-3-carboxy)propyl][(3-(carboxymethoxy)phenyl)hydroxymethyl]phosphinic Acid Hydrochloride]						2.3
COc1cc(CP(=O)(O)CC[C@H](N)C(=O)O)ccc1OCC(=O)O (stereo in doubt) [Derivative 31, 2-amino-4-((4-(carboxymethoxy)-3-methoxybenzyl)(hydroxy)phosphoryl)butanoic acid]	7.41 ± 1.55	>40	> 300			
COc1cc(CP(=O)(O)CC[C@H](N)C(=O)O)cc(F)c1OCC(=O)O (stereo in doubt) [Derivative 34, 2-amino-4-((4-(carboxymethoxy)-3-fluoro-5-methoxybenzyl)(hydroxy)phosphoryl)butanoic acid]	3.09 ± 0.62	3	9.17 ± 2.37	232 ± 85	75	
N[C@@H](CCP(=O)(O)C(O)c1cccc(OCC(=O)O)c1)C(=O)O (stereo partly drawn) [Derivative 15, [((3S)-3-Amino-3-carboxy)propyl][(3-(carboxymethoxy)phenyl)hydroxymethyl]phosphinic Acid]		9.4				
N[C@@H](CCP(=O)(O)C(O)c1cccc(OCC(=O)O)c1)C(=O)O (single isomer, unassigned) [Derivative 17, Hydrochloride]	13 ± 2.9		29.3 ± 7.2			
N[C@@H](CCP(=O)(O)C(O)c1cccc(OCC(=O)O)c1)C(=O)O (stereo partly drawn) [Derivative 16, [((3S)-3-Ammonium-3-carboxy)propyl][(3-(carboxymethoxy)phenyl)hydroxymethyl]phosphinic Acid Hydrochloride]						7.4
COc1cc(CP(=O)(O)CC[C@H](N)C(=O)O)cc(Cl)c1OCC(=O)O (stereo in doubt) [Derivative 35, 2-amino-4-((4-(carboxymethoxy)-3-chloro-5-methoxybenzyl)(hydroxy)phosphoryl)butanoic acid]	6.2 ± 0.58	6	38.2 ± 7.1	> 300	>48	
N[C@@H](CCP(=O)(O)C(O)c1ccc(OCC(=O)O)c(C(=O)O)c1)C(=O)O (stereo in doubt) [Derivative 23, 5-(((3-amino-3-carboxypropyl)(hydroxy)phosphoryl)(hydroxy)methyl)-2-(carboxymethoxy)benzoic acid]	4 ± 0.6	1.9	7.4 ± 1.2	65 ± 13	16	

Continued by falling EC50 (mGlu4), values first:

EC50 (mGlu4) [µM]	mGlu8/4 EC50 ratio (mGlu8)	EC50 (mGlu8) [µM]	EC50 (mGlu7 [1]) [µM]	mGlu7/4 EC50 ratio (mGlu7 [2])	mGlu8/4 EC50 ratio (mGlu8; Hydrochloride)	SMILES
2.5 ± 1.1	6	14.1 ± 7.3				N[C@@H](CCP(=O)(O)C(O)c1ccc(OCC(=O)O)c(OCC(=O)O)c1)C(=O)O (stereo partly drawn) [Derivative 18, [((3S)-3-Amino-3-carboxy)propyl][(3,4-di(carboxymethoxy)phenyl)hydroxymethyl]phosphinic Acid]
1.67 ± 0.33	15	25 ± 6	60.2 ± 10.6	36		CCOc1cc(C(O)P(=O)(O)CC[C@H](N)C(=O)O)ccc1OCC(=O)O (stereo in doubt) [Derivative 19, 2-amino-4-(((4-(carboxymethoxy)-3-ethoxyphenyl)(hydroxy)methyl)(hydroxy)phosphoryl)butanoic acid]
1.22 ± 0.15	>82	> 100	16.2 ± 3.5	13		N[C@@H](CCP(=O)(O)Cc1ccc(OCC(=O)O)c(OC(F)(F)F)c1)C(=O)O (stereo in doubt) [Derivative 32, 2-amino-4-((4-(carboxymethoxy)-3-(trifluoromethoxy)benzyl)(hydroxy)phosphoryl)butanoic acid]
1.1 ± 0.36	10.4	11.5	15.2 ± 3.9	1.4		N[C@@H](CCP(=O)(O)C(O)c1ccc(SCC(=O)O)c([N+](=O)[O-])c1)C(=O)O (stereo in doubt) [Derivative 25, 2-amino-4-(((4-(carboxymethylthio)-3-nitrophenyl)(hydroxy)methyl)(hydroxy)phosphoryl)butanoic acid]
0.98 ± 0.18	50	48.7 ± 9.6	37 ± 5	38		N[C@@H](CCP(=O)(O)C(O)c1ccc(CCC(=O)O)cc1)C(=O)O (stereo partly drawn) [Derivative 12, [((3S)-3-Amino-3-carboxy)propyl][(4-(carboxyethyl)phenyl)hydroxymethyl]phosphinic Acid]
0.95 ± 0.16	15	14.3 ± 5.6	103 ± 7	109		CC(Oc1ccc(C(O)P(=O)(O)CC[C@H](N)C(=O)O)cc1)C(=O)O (stereo in doubt) [Derivative 29, 2-amino-4-(((4-(1-carboxyethoxy)phenyl)(hydroxy)methyl)(hydroxy)phosphoryl)butanoic acid]
0.9 ± 0.06	8	6.86 ± 1.83	35.5 ± 4	39		N[C@@H](CCP(=O)(O)C(O)c1ccc(OCC(=O)O)c(C(F)(F)F)c1)C(=O)O (stereo in doubt) [Derivative 21, 2-amino-4-(((4-(carboxymethoxy)-3-(trifluoromethyl)phenyl)(hydroxy)methyl)(hydroxy)phosphoryl)butanoic acid]
0.38 ± 0.09	484	109 ± 15	22.9 ± 7.8	60		N[C@@H](CCP(=O)(O)C(O)c1cc(Cl)c(OCC(=O)O)c(Cl)c1)C(=O)O (stereo partly shown) [Derivative 9]
0.37 ± 0.12	303	112 ± 46	34 ± 10	92		N[C@@H](CCP(=O)(O)C(O)c1ccc(OCP(=O)(O)O)cc1)C(=O)O (stereo partly drawn) [Derivative 14, [((3S)-3-Amino-3-carboxy)propyl][(4-phosphonomethoxyphenyl)hydroxymethyl]phosphinic Acid]
0.26 ± 0.07	6.1	1.59 ± 0.82	11.2 ± 3.9	43		N[C@@H](CCP(=O)(O)C(O)c1ccc(OCC(=O)O)c([N+](=O)[O-])c1)C(=O)O (stereo in doubt) [Derivative 24, 2-amino-4-(((4-(carboxymethoxy)-3-nitrophenyl)(hydroxy)methyl)(hydroxy)phosphoryl)butanoic acid]
0.21 ± 0.04	5.9	1.23 ± 0.48	13 ± 1.1	62		N[C@@H](CCP(=O)(O)C(O)c1ccc(SCC(=O)O)cc1)C(=O)O (stereo in doubt) [Derivative 26, 2-amino-4-(((4-(carboxymethylthio)phenyl)(hydroxy)methyl)(hydroxy)phosphoryl)butanoic acid]
0.15 ± 0.03	193	28 ± 4	6.6 ± 1.5	44		COc1cc(C(O)P(=O)(O)CC[C@H](N)C(=O)O)cc(I)c1OCC(=O)O (stereo partly shown) [Derivative 8]
0.13 ± 0.02	341	44 ± 7	11.4 ± 0.1	88		COc1cc(C(O)P(=O)(O)CC[C@H](N)C(=O)O)cc(Cl)c1OCC(=O)O (stereo partly shown) [Derivative 7]
0.08 ± 0.02	129	10.3 ± 1.3	3.5 ± 1.3	44		COc1cc(C(O)P(=O)(O)CC[C@H](N)C(=O)O)cc(F)c1OCC(=O)O (stereo partly shown) [Derivative 6]
0.06 ± 0.02	927	55.6 ± 12	1.97 ± 0.34	33		N[C@@H](CCP(=O)(O)C(O)c1ccc(OCC(=O)O)c(OC(F)(F)F)c1)C(=O)O (stereo in doubt) [Derivative 20, 2-amino-4-(((4-(carboxymethoxy)-3-(trifluoromethoxy)phenyl)(hydroxy)methyl)(hydroxy)phosphoryl)butanoic acid]

— patent US9212196B2, “Hypophosphorous acid derivatives having antihyperalgic activity and biological applications thereof” (UNIVERSITE PARIS DESCARTES, priority 2011, dated 2015)
